Reference: ChEMBL document CHEMBL1125524, “Adenosine A1 antagonists. 2. Structure-activity relationships on diuretic activities and protective effects against acute renal failure” (J Med Chem, 1992)

Columns and labels:
[1] = tested on: Rattus norvegicus; experiment: Oral diuretic activity was measured after oral administration of 25 mg/kg to rats(control volume is 0.69+/-0.03); type: functional, Urine
[2] = tested on: Rattus norvegicus; experiment: Serum creatinine concentration measured after intraperitoneal administration of 1 mg/kg of compound to rats(vehicle 4.91+/-0.10); type: functional
[3] = tested on: Rattus norvegicus; experiment: Percent inhibition of Urea nitrogen by the compound given as ratio of UN value in treated to vehicle treated ones after intraperitoneal administration of 10 mg/kg of compound to rats(vehicle 146.7+/-10.1); type: functional; conditions: ip
[4] = tested on: Rattus norvegicus; experiment: Ratio of urinary excretion value (Na+ concentration) in treated rats to that in control rats, at a peroral dose of 1.6 mg/Kg; type: functional, Urine
[5] = tested on: Rattus norvegicus; experiment: Ratio of sodium ion/potassium ion concentration in treated rats to that in control rats, at a peroral dose of 1.6 mg/Kg; type: functional
[6] = tested on: Rattus norvegicus; experiment: Ratio of urinary excretion value (Na+ concentration) in treated rats to that in control rats, at a peroral dose of 25 mg/Kg; type: functional, Urine
[7] = tested on: Rattus norvegicus; experiment: Ratio of urinary excretion value (urinary volume) in treated rats to that in control rats, at a peroral dose of 3.1 mg/Kg; type: functional, Urine
[8] = tested on: Rattus norvegicus; experiment: Oral diuretic activity was measured after oral administration of 1.6 mg/kg to rats(control volume is 1.12+/-0.33); type: functional, Urine
[9] = tested on: Rattus norvegicus; experiment: Effect on urinary excretion potassium and sodium after oral administration of 25 mg/kg to rats(potassium and sodium excretion in control rat is 0.079+/-0.007); type: functional, Urine
[10] = tested on: Rattus norvegicus; experiment: Serum creatinine concentration measured after intraperitoneal administration of 10 mg/kg of compound to rats(vehicle 4.26+/-0.39); type: functional
[11] = tested on: Rattus norvegicus; experiment: Ratio of sodium ion/potassium ion concentration in treated rats to that in control rats, at a peroral dose of 3.1 mg/Kg; type: functional
[12] = tested on: Rattus norvegicus; experiment: Oral diuretic activity was measured after oral administration of 3.1 mg/kg to rats(control volume is 1.18+/-0.11); type: functional, Urine
[13] = tested on: Rattus norvegicus; experiment: Percent inhibition of Urea nitrogen by the compound given as ratio of UN value in treated to vehicle treated ones after intraperitoneal administration of 1 mg/kg of compound to rats(vehicle 154.5+/-7); type: functional; conditions: ip
[14] = tested on: Rattus norvegicus; experiment: Effect on urinary excretion potassium and sodium after oral administration of 3.1 mg/kg to rats(potassium and sodium excretion in control rat is 0.227+/-0.027); type: functional, Urine
[15] = tested on: Rattus norvegicus; experiment: Ratio of urinary excretion value (Na+ concentration) in treated rats to that in control rats, at a peroral dose of 3.1 mg/Kg; type: functional, Urine
[16] = tested on: Rattus norvegicus; experiment: Percent inhibition of serum creatinine by the compound given as ratio of Cr value in treated to vehicle treated ones after intraperitoneal administration of 1 mg/kg of compound to rats(vehicle 4.91+/-0.10); type: functional; conditions: ip
[17] = tested on: Rattus norvegicus; experiment: Ratio of urinary excretion value (urinary volume) in treated rats to that in control rats, at a peroral dose of 25 mg/Kg; type: functional, Urine
[18] = tested on: Rattus norvegicus; experiment: Urea nitrogen concentration measured after intraperitoneal administration of 10 mg/kg of compound to rats(vehicle 146.7+/-10.1); type: functional
[19] = tested on: Rattus norvegicus; experiment: Effect on urinary excretion potassium and sodium after oral administration of 1.6 mg/kg to rats(potassium and sodium excretion in control rat is 0.158+/-0.034); type: functional, Urine
[20] = biological target: T1, Adenosine receptor A1 (Cavia porcellus, UniProt P47745)
T1 sequence (P47745 whole entry): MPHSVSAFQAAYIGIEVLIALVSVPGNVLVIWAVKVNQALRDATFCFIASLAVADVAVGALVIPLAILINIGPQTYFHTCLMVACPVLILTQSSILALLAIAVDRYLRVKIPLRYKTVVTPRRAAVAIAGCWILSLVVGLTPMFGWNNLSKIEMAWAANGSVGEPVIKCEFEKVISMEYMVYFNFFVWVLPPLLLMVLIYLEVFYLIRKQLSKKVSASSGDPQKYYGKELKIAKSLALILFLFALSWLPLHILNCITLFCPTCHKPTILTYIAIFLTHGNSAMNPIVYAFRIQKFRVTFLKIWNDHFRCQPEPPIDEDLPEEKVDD
Description: Binding affinity against adenosine A1 receptor in guinea pig forebrain membranes using N6-[3H]cyclohexyladenosine as radioligand

[21] = tested on: Rattus norvegicus; experiment: Urea nitrogen concentration measured after intraperitoneal administration of 1 mg/kg of compound to rats(vehicle 154.5+/-7); type: functional
[22] = tested on: Rattus norvegicus; experiment: Percent inhibition of serum creatinine by the compound given as ratio of Cr value in treated to vehicle treated ones after intraperitoneal administration of 10 mg/kg of compound to rats(vehicle 4.26+/-0.39); type: functional; conditions: ip
[23] = tested on: Rattus norvegicus; experiment: Ratio of urinary excretion value (urinary volume) in treated rats to that in control rats, at a peroral dose of 1.6 mg/Kg; type: functional, Urine
[24] = tested on: Rattus norvegicus; experiment: Percent inhibition of Urea nitrogen by the compound given as ratio of UN value in treated to vehicle treated ones after intraperitoneal administration of 10 mg/kg of compound to rats(vehicle 97.7+/-8.7); type: functional; conditions: ip
[25] = tested on: Rattus norvegicus; experiment: Ratio of sodium ion/potassium ion concentration in treated rats to that in control rats, at a peroral dose of 25 mg/Kg; type: functional
[26] = tested on: Rattus norvegicus; experiment: Effect on urinary excretion potassium and sodium after oral administration of 25 mg/kg to rats(potassium and sodium excretion in control rat is 0.095+/-0.009); type: functional, Urine
[27] = tested on: Rattus norvegicus; experiment: Urea nitrogen concentration measured after intraperitoneal administration of 10 mg/kg of compound to rats(vehicle 97.7+/-8.7); type: functional
[28] = tested on: Rattus norvegicus; experiment: Serum creatinine concentration measured after intraperitoneal administration of 10 mg/kg of compound to rats(vehicle 2.74+/-0.27); type: functional
[29] = tested on: Rattus norvegicus; experiment: Oral diuretic activity was measured after oral administration of 25 mg/kg to rats(control volume is 1.04+/-0.11); type: functional, Urine
[30] = tested on: Rattus norvegicus; experiment: Percent inhibition of serum creatinine by the compound given as ratio of Cr value in treated to vehicle treated ones after intraperitoneal administration of 10 mg/kg of compound to rats(vehicle 2.74+/-0.27); type: functional; conditions: ip

Compound `CCCn1c(=O)c2nc(C34CC5CC(CC(C5)C3)C4)[nH]c2n(CCC)c1=O` has a Urine volume [1] of 1.58 ml 6hr-1 100g-1, a Cr [2] of 3.45 mg/dL and an inhibition in vivo at 10 mg/kg [3] of 47%. The T/C [4] was 1.44, the “Na+/K+” value [5] was 1.22 and the T/C [6] was 2.86. The T/C [7] was 1.42, the Urine volume [8] was 1.39 ml 6hr-1 100g-1 and the Na [9] was 0.226 m equiv 6hr-1 100g-1. For the same compound, the Cr [10] was 1.91 mg/dL, the “Na+/K+” value [11] was 1.23 and the Urine volume [12] was 1.67 ml 6hr-1 100g-1. For the same compound, the inhibition in vivo at 1 mg/kg [13] was 25%, the Na [14] was 0.299 m equiv 6hr-1 100g-1 and the T/C [15] was 1.32. For the same compound, the inhibition in vivo at 1 mg/kg [16] was 30%, the T/C [17] was 2.29 and the UN [18] was 77.5 mg/dL. It also gave a Na [19] of 0.227 m equiv 6hr-1 100g-1, a Ki [20] of 13 nM and a UN [21] of 118.8 mg/dL. The inhibition in vivo at 10 mg/kg [22] was 55% and the T/C [23] was 1.24.

With `CCCn1c(=O)c2[nH]c(-c3ccc(OCC(=O)NCCN)cc3)nc2n(CCC)c1=O` [XANTHINE AMINE CONGENER] the inhibition in vivo at 10 mg/kg [24] was 28%, the “Na+/K+” value [25] was 1.24 and the Na [26] was 0.113 m equiv 6hr-1 100g-1. The T/C [6] was 1.19, the UN [27] was 70.1 mg/dL and the Cr [28] was 2.07 mg/dL. It also gave a T/C [17] of 1.05, a Urine volume [29] of 1.05 ml 6hr-1 100g-1 and an inhibition in vivo at 10 mg/kg [30] of 24%.
